Reference: patent US10851065B2 (Eisai R&D Management Co., Ltd., priority 2015, dated 2020)

Columns and labels:
[1] = tested on: MCF7-WT cells (MCF7 ER-alpha wildtype); test: In vitro proliferation (viability) assay, CellTiter-Glo, MCF7-WT cells; assay type: cell-based; conditions: Homo sapiens; MCF7-WT cells, 6 days, CTG vs day 0; mean ± SD-type spread (n); read-out: GI50 WT
Experimental: (§1) MCF7 BUS cells (Coser, et al., (2003) PNAS 100(24): 13994-13999) were maintained in Dulbecco's Modified Eagle Medium supplemented with 10% FBS, 4 mM L-glutamine and 1× non-essential amino acids. Lenti-X 293T cells (Clontech, Cat #632180) were routinely cultured in Dulbecco's Modified Eagle Medium supplemented with 10% FBS.
(§2) The QuikChange II XL Site-Directed Mutagenesis Kit (Agilent Technologies, Cat #200523) was used to generate Y537S, Y537C, Y537N and D538G mutations within the ERα exon 8. Wild-type ESR1 cDNA (GeneCopoeia Inc., Cat #GC-A0322, accession no. NM 000125) was used as a template with the following mutagenesis primers (where the underlined nucleotides represent site mutations); Y537S: F-AAGAACGTGGTGCCCCTCTCTGACCTGCTGCTGGAGATG (SEQ ID NO: 1), R-CATCTCCAGCAGCAGGTCAGAGAGGGGCACCACGTTCTT (SEQ ID NO: 2); Y537N: F-AAGAACGTGGTGCCCCTCAATGACCTGCTGCTGGAGATG (SEQ ID NO: 3), R-CATCTCCAGCAGCAGGTCATTGAGGGGCACCACGTTCTT (SEQ ID NO: 4); Y537C: F-AAGAACGTGGTGCCCCTCTGTGACCTGCTGCTGGAGATG (SEQ ID NO: 5), R-CATCTCCAGCAGCAGGTCACAGAGGGGCACCACGTTCTT (SEQ ID NO: 6); D538G: F-AACGTGGTGCCCCTCTATGGCCTGCTGCTGGAGATGCTG (SEQ ID NO: 7), R-CAGCATCTCCAGCAGCAGGCCATAGAGGGGCACCACGTT (SEQ ID NO: 8). WT and mutant ESR1 cDNAs were cloned into the designation lentiviral vector pLenti6.3/V5-Dest (Invitrogen, Cat #V533-06). To make lentivirus, DNAs (WT and mutant ESR1) were co-transfected with packaging plasmids into Lenti-X 293T cells using TransIT (Mirus, Cat #MIR 2700). 48 h post-transfection, virus containing media was filtered and added to MCF7 cells in the presence of 8 µg/ml polybrene overnight. Two days following infection, cells were placed under selection with 10 μg/ml blasticidin for 2 weeks for stable expression.
(§3) MCF7-WT and -Y537S cells were seeded at 1500 cells/well in black-walled 96-well plates (assay plates, Costar, Cat #3904). In parallel, cells were also seeded in a separate 96-well plate (8 wells/cell line, control plate) for which a CTG (CellTiter-Glo® Luminescent Viability Assay, Promega, Cat #G7572) was measured the following day (day 0 reading). The day 0 reading was used for the GI50 calculation at the termination of the experiment. The day following seeding, compounds were added to assay plates. Briefly, a 1:4 serial dilution was prepared in DMSO at 200× final concentration for a total of 10 concentrations (9 dilutions containing compound and one is DMSO only). Serially diluted compounds were pipetted into medium to prepare a compound-medium mix at 10× final concentration. 10 μl of compound-medium mix was added to MCF7-WT and -Y537S cells at 3 wells/concentration (triplicate for each concentration). On day 3, media/compound was removed and replaced with fresh media/compound as described above. On day 6, CTG was measured and compared to day 0 readings from control plate to assess GI50.

[2] = tested on: MCF7-Y537S cells (MCF7 ER-alpha Y537S mutant); test: In vitro proliferation (viability) assay, CellTiter-Glo, MCF7-Y537S cells; assay type: cell-based; conditions: Homo sapiens; MCF7-Y537S cells, 6 days, CTG vs day 0; mean ± SD-type spread (n); read-out: GI50 MUT (Y537S)
Experimental: as §1, §2, §3

SMILES | GI50 [1] | GI50 [2]
CC/C(=C(/c1ccc(OCCNC/C=C/C(=O)N(C)C)c(F)c1)c1ccc2[nH]nc(F)c2c1)c1ccccc1 [Compound 49, (E)-4-((2-(2-fluoro-4-((Z)-1-(3-fluoro-1H-indazol-5-yl)-2-phenylbut-1-en-1-yl)phenoxy)ethyl)amino)-N,N-dimethylbut-2-enamide] | 5.4 nM | 288 nM
CC/C(=C(/c1ccc(OCCNC/C=C/C(=O)N(C)C)cc1)c1ccc2[nH]nc(F)c2c1)c1c(F)cccc1F [Compound 50, (E)-4-((2-(4-((E)-2-(2,6-difluorophenyl)-1-(3-fluoro-1H-indazol-5-yl)but-1-en-1-yl)phenoxy)ethyl)amino)-N,N-dimethylbut-2-enamide] | 2.46 nM | 67.5 nM
CC/C(=C(/c1ccc(OCCNC/C=C/C(=O)N(C)C)cc1)c1ccc2[nH]nc(F)c2c1)c1cccnc1 [Compound 51, (E)-4-((2-(4-((E)-1-(3-fluoro-1H-indazol-5-yl)-2-(pyridin-3-yl)but-1-en-1-yl)phenoxy)ethyl)amino)-N,N-dimethylbut-2-enamide] | 20.9 nM | 347 nM
CC/C(=C(/c1ccc(OCCNC/C=C/C(=O)N(C)C)cc1)c1ccc2[nH]nc(F)c2c1)c1ccncc1 [Compound 52, (E)-4-((2-(4-((E)-1-(3-fluoro-1H-indazol-5-yl)-2-(pyridin-4-yl)but-1-en-1-yl)phenoxy)ethyl)amino)-N,N-dimethylbut-2-enamide] | 2.9 nM | 85.8 nM
CN(CCO)C(=O)/C=C/CNCCOc1ccc(/C(=C(\c2ccccc2)C2CCC2)c2ccc3[nH]nc(F)c3c2)cc1 [Compound 53, (E)-4-((2-(4-((E)-2-cyclobutyl-1-(3-fluoro-1H-indazol-5-yl)-2-phenylvinyl)phenoxy)ethyl)amino)-N-(2-hydroxyethyl)-N-methylbut-2-enamide] | 3.59 nM | 76.5 nM
C/C(=C(/c1ccc(OCCNC/C=C/C(=O)N(C)C)cc1)c1ccc2[nH]ncc2c1)c1ccccc1 [Compound 54, (E)-4-((2-(4-((E)-1-(1H-indazol-5-yl)-2-phenylprop-1-en-1-yl)phenoxy)ethyl)amino)-N,N-dimethylbut-2-enamide] | 7.97 ± 1.65 nM | 160 ± 39.6 nM
CN(C)C(=O)/C=C/CNCCOc1ccc(/C(=C(\c2ccccc2)C2CC2)c2ccc3[nH]ncc3c2)cc1 [Compound 56, (E)-4-((2-(4-((E)-2-cyclopropyl-1-(1H-indazol-5-yl)-2-phenylvinyl)phenoxy)ethyl)amino)-N,N-dimethylbut-2-enamide] | 3.78 ± 1.75 nM | 63.6 ± 18.4 nM
CC/C(=C(/c1ccc(OCCNC/C=C/C(=O)N(C)C)cc1)c1ccc2[nH]ncc2c1F)c1ccc(F)cc1Cl [Compound 57, (E)-4-((2-(4-((E)-2-(2-chloro-4-fluorophenyl)-1-(4-fluoro-1H-indazol-5-yl)but-1-en-1-yl)phenoxy)ethyl)amino)-N,N-dimethylbut-2-enamide] | 1.9 nM | 36.2 nM
CC/C(=C(/c1ccc(OCCNC/C=C/C(=O)N(C)C)nc1)c1ccc2[nH]nc(F)c2c1)c1ccc(F)cc1Cl [Compound 58, (E)-4-((2-((5-((Z)-2-(2-chloro-4-fluorophenyl)-1-(3-fluoro-1H-indazol-5-yl)but-1-en-1-yl)pyridin-2-yl)oxy)ethyl)amino)-N,N-dimethylbut-2-enamide] | 1.3 ± 0.4 nM | 17.9 ± 4.5 nM
CN(C)C(=O)/C=C/CNCCOc1ccc(/C(=C(/CC(F)(F)F)c2ccc(F)cc2Cl)c2ccc3[nH]nc(F)c3c2)cn1 [Compound 59, (E)-4-((2-((5-((Z)-2-(2-chloro-4-fluorophenyl)-4,4,4-trifluoro-1-(3-fluoro-1H-indazol-5-yl)but-1-en-1-yl)pyridin-2-yl)oxy)ethyl)amino)-N,N-dimethylbut-2-enamide] | 0.33 ± 0.18 nM | 15.2 ± 3.7 nM
CN(C)C(=O)/C=C/CNCCOc1ccc(/C(=C(/CC(F)(F)F)c2ccncc2F)c2ccc3[nH]nc(F)c3c2)cc1 [Compound 61, (E)-N,N-dimethyl-4-((2-(4-((E)-4,4,4-trifluoro-1-(3-fluoro-1H-indazol-5-yl)-2-(3-fluoropyridin-4-yl)but-1-en-1-yl)phenoxy)ethyl)amino)but-2-enamide] | 0.3 ± 0.1 nM | 4 ± 1.5 nM
CN(C)C(=O)/C=C/CNCCOc1ccc(/C(=C(/CC(F)(F)F)c2ccncc2F)c2ccc3[nH]nc(F)c3c2)cn1 [Compound 62, (E)-N,N-dimethyl-4-((2-((5-((Z)-4,4,4-trifluoro-1-(3-fluoro-1H-indazol-5-yl)-2-(3-fluoropyridin-4-yl)but-1-en-1-yl)pyridin-2-yl)oxy)ethyl)amino)but-2-enamide] | 0.3 nM | 1.3 nM
CC/C(=C(/c1ccc(OCCNC/C=C/C(=O)N(C)C)cc1)c1ccc2[nH]ncc2n1)c1ccccc1 [Compound 63, (E)-N,N-dimethyl-4-((2-(4-((E)-2-phenyl-1-(1H-pyrazolo[4,3-b]pyridin-5-yl)but-1-en-1-yl)phenoxy)ethyl)amino)but-2-enamide] | 2.8 nM | 65.7 nM
CC/C(=C(\c1ccc2[nH]nc(F)c2c1)c1ccc(OCCNC/C=C/C(=O)N(C)C)cc1F)c1ccccc1 [Compound 64, (E)-4-((2-(3-fluoro-4-((Z)-1-(3-fluoro-1H-indazol-5-yl)-2-phenylbut-1-en-1-yl)phenoxy)ethyl)amino)-N,N-dimethylbut-2-enamide] | 3.1 nM | 58.3 nM
CC/C(=C(/c1ccc(OCCNC/C=C/C(=O)N(C)C)cc1)c1ccc2[nH]nc(F)c2c1)c1ccc(F)cc1F [Compound 65, (E)-4-((2-(4-((E)-2-(2,4-difluorophenyl)-1-(3-fluoro-1H-indazol-5-yl)but-1-en-1-yl)phenoxy)ethyl)amino)-N,N-dimethylbut-2-enamide] | 4 nM | 66 nM
CC/C(=C(/c1ccc(OCCNC/C=C/C(=O)N(C)C)cc1)c1cc2c(F)n[nH]c2cc1F)c1ccccc1 [Compound 66, (E)-4-((2-(4-((E)-1-(3,6-difluoro-1H-indazol-5-yl)-2-phenylbut-1-en-1-yl)phenoxy)ethyl)amino)-N,N-dimethylbut-2-enamide] | 32.1 nM | 827 nM
CC/C(=C(/c1ccc(OCCNC/C=C/C(=O)N(C)C)cc1)c1ccc2[nH]nc(F)c2c1)c1ccccn1 [Compound 67, (E)-4-((2-(4-((E)-1-(3-fluoro-1H-indazol-5-yl)-2-(pyridin-2-yl)but-1-en-1-yl)phenoxy)ethyl)amino)-N,N-dimethylbut-2-enamide] | 10.5 nM | 193 nM
CC/C(=C(/c1ccc(OCCNC/C=C/C(=O)N(C)C)nc1)c1ccc2[nH]nc(F)c2c1)c1ccccc1 [Compound 68, (E)-4-((2-((5-((Z)-1-(3-fluoro-1H-indazol-5-yl)-2-phenylbut-1-en-1-yl)pyridin-2-yl)oxy)ethyl)amino)-N,N-dimethylbut-2-enamide] | 2.8 nM | 30.3 nM
CN(C)C(=O)/C=C/CNCCOc1ccc(/C(=C(\c2ccccc2)C2CCC2)c2ccc3[nH]nc(F)c3c2)cn1 [Compound 72, (E)-4-((2-((5-((Z)-2-cyclobutyl-1-(3-fluoro-1H-indazol-5-yl)-2-phenylvinyl)pyridin-2-yl)oxy)ethyl)amino)-N,N-dimethylbut-2-enamide] | 2 nM | 32.7 nM
